# Assay results as given in ChEMBL document CHEMBL1150654, “New marine diterpenoids from the Okinawan soft coral Clavularia koellikeri” (J Nat Prod, 2002).
# Legend:
# Type in all cases: functional, cell-based
# A549 = assay: Cytotoxicity against human A549 cells after 48 hrs by sulforhodamine B assay; conditions: A549, 48 h
# St-4 = assay: Cytotoxicity against human St-4 cells after 48 hrs by sulforhodamine B assay; conditions: St-4, 48 h
# [1] = Cytotoxicity against human BSY1 cells after 48 hrs by sulforhodamine B assay; conditions: BSY-1, 48 h
# HCC 2998 = assay: Cytotoxicity against human HCC2998 cells after 48 hrs by sulforhodamine B assay; conditions: HCC 2998, 48 h
# HCT-116 = assay: Cytotoxicity against human HCT116 cells after 48 hrs by sulforhodamine B assay; conditions: HCT-116, 48 h
# [2] = Cytotoxicity against human MKN1 cells after 48 hrs by sulforhodamine B assay; conditions: MKN-1, 48 h
# ACHN = assay: Cytotoxicity against human ACHN cells after 48 hrs by sulforhodamine B assay
# NCI-H460 = assay: Cytotoxicity against human NCI-H460 cells after 48 hrs by sulforhodamine B assay; conditions: NCI-H460, 48 h
# HCT-15 = assay: Cytotoxicity against human HCT15 cells after 48 hrs by sulforhodamine B assay; conditions: HCT-15, 48 h
# SF-295 = assay: Cytotoxicity against human SF295 cells after 48 hrs by sulforhodamine B assay; conditions: SF-295, 48 h
# OVCAR-4 = assay: Cytotoxicity against human OVCAR4 cells after 48 hrs by sulforhodamine B assay; conditions: OVCAR-4, 48 h
# NCI-H226 = assay: Cytotoxicity against human NCI-H226 cells after 48 hrs by sulforhodamine B assay; conditions: NCI-H226, 48 h
# MCF7 = assay: Cytotoxicity against human MCF7 cells after 48 hrs by sulforhodamine B assay; conditions: MCF7, 48 h
# SF-268 = assay: Cytotoxicity against human SF268 cells after 48 hrs by sulforhodamine B assay; conditions: SF-268, 48 h
# U-251 = assay: Cytotoxicity against human U251 cells after 48 hrs by sulforhodamine B assay; conditions: U-251, 48 h
# MKN-74 = assay: Cytotoxicity against human MKN74 cells after 48 hrs by sulforhodamine B assay; conditions: MKN-74, 48 h
# KM12 = assay: Cytotoxicity against human KM12 cells after 48 hrs by sulforhodamine B assay; conditions: KM12, 48 h
# SF-539 = assay: Cytotoxicity against human SF539 cells after 48 hrs by sulforhodamine B assay; conditions: SF-539, 48 h
# [3] = Cytotoxicity against human RXF631L cells after 48 hrs by sulforhodamine B assay; conditions: RXF 631, 48 h
# DU-145 = assay: Cytotoxicity against human DU145 cells after 48 hrs by sulforhodamine B assay; conditions: DU-145, 48 h
# MKN-28 = assay: Cytotoxicity against human MKN28 cells after 48 hrs by sulforhodamine B assay; conditions: MKN-28, 48 h
# SNB-78 = assay: Cytotoxicity against human SNB78 cells after 48 hrs by sulforhodamine B assay; conditions: SNB-78, 48 h
# MKN-45 = assay: Cytotoxicity against human MKN45 cells after 48 hrs by sulforhodamine B assay; conditions: MKN-45, 48 h
# OVCAR-8 = assay: Cytotoxicity against human OVCAR8 cells after 48 hrs by sulforhodamine B assay; conditions: OVCAR-8, 48 h
# NCI-H23 = assay: Cytotoxicity against human NCI-H23 cells after 48 hrs by sulforhodamine B assay; conditions: NCI-H23, 48 h
# LOX IMVI = assay: Cytotoxicity against human LOXIMVI cells after 48 hrs by sulforhodamine B assay
# OVCAR-5 = assay: Cytotoxicity against human OVCAR5 cells after 48 hrs by sulforhodamine B assay; conditions: OVCAR-5, 48 h
# HT-29 = assay: Cytotoxicity against human HT-29 cells after 48 hrs by sulforhodamine B assay; conditions: HT-29, 48 h
# OVCAR-3 = assay: Cytotoxicity against human OVCAR-3 cells after 48 hrs by sulforhodamine B assay; conditions: OVCAR-3, 48 h
# SK-OV-3 = assay: Cytotoxicity against human SKOV3 cells after 48 hrs by sulforhodamine B assay; conditions: SK-OV-3, 48 h
# DMS-273 = assay: Cytotoxicity against human DMS273 cells after 48 hrs by sulforhodamine B assay; conditions: DMS-273, 48 h
# [4] = Cytotoxicity against human HBC5 cells after 48 hrs by sulforhodamine B assay; conditions: HBC5, 48 h
# NCI-H522 = assay: Cytotoxicity against human NCI-H522 cells after 48 hrs by sulforhodamine B assay; conditions: NCI-H522, 48 h
# MKN-7 = assay: Cytotoxicity against human MKN7 cells after 48 hrs by sulforhodamine B assay; conditions: MKN-7, 48 h
# DMS-114 = assay: Cytotoxicity against human DMS114 cells after 48 hrs by sulforhodamine B assay; conditions: DMS-114, 48 h
# [5] = Cytotoxicity against human HBC4 cells after 48 hrs by sulforhodamine B assay; conditions: HBC4, 48 h
# SNB-75 = assay: Cytotoxicity against human SNB75 cells after 48 hrs by sulforhodamine B assay; conditions: SNB-75, 48 h
# PC-3 = assay: Cytotoxicity against human PC3 cells after 48 hrs by sulforhodamine B assay; conditions: PC-3, 48 h
# MDA-MB-231 = assay: Cytotoxicity against human MDA-MB-231 cells after 48 hrs by sulforhodamine B assay; conditions: MDA-MB-231, 48 h
smiles,measurement,setting,value
C=C1C(=O)O[C@H]2/C=C(\C)CC/C=C(\C)CC/C=C(\C)CC[C@H]12,IC50,A549,1.26 µg/mL
same,IC50,St-4,3.9 µg/mL
same,IC50,[1],1.35 µg/mL
same,IC50,HCC 2998,1.29 µg/mL
same,IC50,HCT-116,1.17 µg/mL
same,IC50,[2],1.2 µg/mL
same,IC50,ACHN,3 µg/mL
same,IC50,NCI-H460,3.3 µg/mL
same,IC50,HCT-15,2.01 µg/mL
same,IC50,SF-295,3.9 µg/mL
same,IC50,OVCAR-4,2.25 µg/mL
same,IC50,NCI-H226,1.14 µg/mL
same,IC50,MCF7,0.9 µg/mL
same,IC50,SF-268,3 µg/mL
same,IC50,U-251,4.2 µg/mL
same,IC50,MKN-74,0.81 µg/mL
same,IC50,KM12,1.32 µg/mL
same,IC50,SF-539,1.56 µg/mL
same,IC50,[3],4.8 µg/mL
same,IC50,DU-145,3.3 µg/mL
same,IC50,MKN-28,0.96 µg/mL
same,IC50,SNB-78,1.59 µg/mL
same,IC50,MKN-45,3 µg/mL
same,IC50,OVCAR-8,0.93 µg/mL
same,IC50,NCI-H23,3.6 µg/mL
same,IC50,LOX IMVI,0.72 µg/mL
same,IC50,OVCAR-5,2.31 µg/mL
same,IC50,HT-29,1.47 µg/mL
same,IC50,OVCAR-3,1.14 µg/mL
same,IC50,SK-OV-3,6.6 µg/mL
same,IC50,DMS-273,1.11 µg/mL
same,IC50,[4],2.13 µg/mL
same,IC50,NCI-H522,0.66 µg/mL
same,IC50,MKN-7,0.96 µg/mL
same,IC50,DMS-114,3.6 µg/mL
same,IC50,[5],1.62 µg/mL
same,IC50,SNB-75,3.3 µg/mL
same,IC50,PC-3,1.11 µg/mL
same,IC50,MDA-MB-231,4.5 µg/mL
